Measured values: patent publication US5081112A, “Method for treating hyperlipidemia” (Otsuka Pharmaceutical Factory Inc., priority 1986, dated 1992)

Tests used:
[1] = large amount for a long period; animal test; cited from earlier work
Wistar-strain male rats = test: Acute toxicity test; format: in vivo; settings: 2 g/kg oral; rat
Description: (§1) Each of carboxamide compounds represented by the formula (1), which is the active ingredient contained in pharmaceutical composition according to the present invention, was suspended in 5%-CMC-Na aqueous solution and administered orally to Wistar-strain male rats of 7 week age (one test group consisting of 6 rats) so as to observe the acute toxicity of each of the carboxamide compounds.
(§2) Thus, LD50 value of Test compound No. 2 is considered to higher than […]. Thus, carboxamide compounds represented by the formula (1) according to the present invention can be said as quite safety compounds.

Acute toxicity test = format: in vivo, Wistar-strain male rats; settings: in vivo; oral; rat
Description: as §1, §2

SMILES: CCOC(=O)C(C)(C)Oc1ccc(Cl)cc1 [Clofibrate]
- formation of hepatic tumor [1]: the formation of hepatic tumor was observed

SMILES: CCOP(=O)(Cc1ccc(C(=O)N(Cc2ccccc2)c2ccc(Cl)cc2)cc1)OCC [Test compound No. 2]
- lethal cases (Wistar-strain male rats): not any lathal case at all
- LD50 (Acute toxicity test): > 2000 mg/kg
